Minimal effective dose and hypotensive activity data for 17 compounds are collected here from patent publication US4029801A, “Pharmaceutical compositions and methods of treating hypertension” (priority 1970, dated 1977).

Assay [1] concerns blood pressure and heart rate. The assay is described as follows: Method 1 (rat): hypotensive activity in anaesthetised rats, i.v. The note with it: Rattus norvegicus, iv, 0.25 h, read-out: Hypotensive Activity.
Description: Rats were anaesthetised with pentobarbitone sodium (60 mg/kg) and the jugular vein, trachea and carotid artery were cannulated. […] A decrease in heart rate of more than 30% from control values was considered to be significant bradycardia.
Another assay deals with blood pressure. Kind of assay: Tests for action on the cardiovascular system: hypotensive activity (activity in method 1, rats or cats, or method 2), reported in words. It is filed as in vivo, rat, cat. The note with it: standard test procedure, result in words. As to the method:
Tests for action on the cardiovascular system were conducted according to one of the following procedures:
Cats were anaesthetised with pentobarbitone sodium (30 mg/kg) and the cephalic vein, femoral and carotid arteries and trachea were cannulated. The carotid cannula was introduced into the left ventricle and the femoral cannula into the aorta. Blood pressure and heart rate were recorded from the aortic cannula and left ventricular pressure from the carotid cannula. The test compunds were administered intravenously (0.1-25.6 mg/kg).
Method 2 (hypertensive rats)
Male or female rats are rendered hypertensive by applying a figure of 8 ligature around one kidney and contralateral nephrectomy. Blood pressure stabilises at a hypertensive level after 6 weeks. Systolic pressure is measured indirectly using a Decker Caudal Plethysmograph A control group of rats is run with each group treated with drug. Each group usually consists of six rats. Drugs are usually administered by the IP or oral routes. Pressures are read prior to drug administration and at two and 24 hours thereafter.

Where only a bound is given, the exact number is not on record here.

On to `O=C(NC1CCN(CCCC(O)c2ccccc2)CC1)c1ccccc1` (single isomer, unassigned; (+)) [Example 86, (+)-4-Benzamido-1-(4-phenyl-4-hydroxybutyl)piperidine], for which the minimal effective dose in assay [1] lay in the range of 1.6 to 3.2 mg/kg. Further, the hypotensive activity entry in the assay on blood pressure is reported as “hypotensive activity”. Taken in the same sequence, the figures for `O=C(NC1CCN(CCC2CCCCC2)CC1)c1ccccc1` [Example 1, 1-[2-(Cyclohexyl)ethyl]-4-benzamidopiperidine] were 1.6 to 3.2 mg/kg and “good hypotensive activity”. As to `COc1ccc(CCN2CCC(NC(=O)c3ccccc3)CC2)cc1OC` [Example 5, 1-[2-(3,4-Dimethoxyphenyl)ethyl]-4-benzamidopiperidine], the minimal effective dose in assay [1] is less than 30 mg/kg. As for `COc1ccc(CCN2CCC(NC(=O)c3ccccc3Cl)CC2)cc1OC` [Example 6, 1-[2-(3,4-Dimethoxyphenyl)ethyl]-4-(2-chlorobenzamido)-piperidine], in assay [1], the minimal effective dose is 25.6 mg/kg. For the same compound, in the assay with blood pressure, the hypotensive activity entry is reported as “hypotensive activity”. Consider `COc1cc(CCN2CCC(NC(=O)c3ccccc3)CC2)cc(OC)c1OC` [Example 8, 1-[2-(3,4,5-Trimethoxyphenyl)ethyl]-4-benzamidopiperidine], for which the minimal effective dose in assay [1] lay within 6.4 to 12.8 mg/kg. As to `O=C(CN1CCC(NC(=O)c2ccccc2)CC1)c1ccc(O)c(O)c1` [Example 11, 1-[2-(3,4-Dihydroxyphenyl)-2-oxoethyl]-4-benzamidopiperidine], in assay [1], the minimal effective dose is 1.6 to 3.2 mg/kg. Besides, the hypotensive activity result in the assay with blood pressure is “marked hypotensive activity”. As for `O=C(NC1=CCN(CCc2ccccc2)CC1)c1ccccc1` [Example 26, 1-Phenethyl-4-benzamido-1,2,5,6-tetrahydropyridine], in the assay with blood pressure, the hypotensive activity result is “hypotensive activity”. `O=C(NC1CCN(Cc2ccccc2)CC1)c1ccccc1` [Example 30, 1-Benzyl-4-benzamidopiperidine]: the minimal effective dose in assay [1] worked out at 25.6 mg/kg. For the compound `Cc1ccc(C(=O)NC2CCN(Cc3ccccc3)CC2)cc1` [Example 32, 1-Benzyl-4-(p-methylbenzamido)piperidine], the minimal effective dose in assay [1] was less than 30 mg/kg. Take `Cl.O=C(NC1CCN(CCc2ccccc2)CC1)c1ccccc1` [Example 59, 1-Phenethyl-4-benzamidopiperidine hydrochloride]: in the assay on blood pressure, the hypotensive activity entry is reported as “hypotensive activity”. Turning to `CC(C(=O)c1ccc(O)cc1)N1CCC(NC(=O)c2ccccc2)CC1` (stereo not drawn) [Example 64, 1-[1-Methyl-2-(4-hydroxy)phenyl-2-oxoethyl]-4-benzamidopiperidine], the minimal effective dose in assay [1] was less than 30 mg/kg. Turning to `Cc1cc2c(cc1C(O)CN1CCC(NC(=O)c3ccccc3)CC1)C(C)(C)CC(C)C2(C)C` (stereo not drawn) [Example 67, 7-[2-(4-Benzamidopiperid-1-yl)-1-hydroxyethyl]-1,1,3,4,4,6-Hexamethyl-1,2,3,4-tetrahydronaphthalene], the hypotensive activity entry in the assay on blood pressure is given as “hypotensive activity”. `O=C(CCCN1CCC(NC(=O)c2ccccc2)CC1)c1ccc(Br)cc1` [Example 71, 4-Benzamido-1-[4-(4-bromophenyl)-4-oxobutyl]piperidine]: the minimal effective dose in assay [1] is 25.6 mg/kg.

For `COc1ccc(C(=O)CCCN2CCC(NC(=O)c3ccccc3)CC2)cc1` [Example 77, 4-Benzamido-1-[4-(4-methoxyphenyl)-4-oxobutyl]piperidine], in assay [1], the minimal effective dose fell in the range of 6.4 to 12.8 mg/kg. With `C[N+]1(CCCC(=O)c2ccccc2)CCC(NC(=O)c2ccccc2)CC1` (stereo not drawn) [Example 82, 4-Benzamido-1-methyl-1-(4-phenyl-4-oxobutyl)piperidinium iodide], the hypotensive activity entry in the assay with blood pressure was “hypotensive activity”. Still for that read-out and setting: with `O=C(NC1CCN(CCc2ccc3ccccc3n2)CC1)c1ccccc1` [Example 95, 1-[2-(2-Quinolyl)ethyl]-4-benzamidopiperidine] the entry was “marked hypotensive activity”; with `O=C(NC1CCN(CC(O)c2ccc[nH]2)CC1)c1ccccc1` (stereo not drawn) [Example 98, 1-[2-Hydroxy-2-(2-pyrrol-2-yl)ethyl]-4-benzamidopiperidine], “hypotensive activity”.
